# Assay results as given in US4918074A, “Polyazaheterocycle compounds” (Yoshitomi Pharmaceutical Industries, Ltd., priority 1984, dated 1990).
# Tests used:
# Format in all cases: in vivo
# [1] = system: arterial blood pressure; test: Hypotensive effects in the anesthetized dog; conditions: Canis lupus familiaris, iv, read-out: Hypotensive effect; for inhibition in vivo at 0.01 mg/kg: 10 μg/kg; for inhibition in vivo at 0.03 mg/kg: 30 μg/kg
# Description: (§1) Adult mongrel dogs were anesthetized with sodium pentobarbital (30 mg/kg i.v.). Effects of test compounds on arterial blood pressure, coronary arterial blood flow, vertebral blood flow, renal blood flow, left ventricular dp/dt max (dp/dt max) and urine volume were observed. The compounds were administered intravenously (i.v.) or intraduodenally (i.d.).
# [2] = system: left ventricular dp/dt max; test: Left ventricular dp/dt max after injection into left coronary artery of anesthetized dogs; conditions: intracoronary injection, anesthetized dog; dose to increase dp/dt max by 30% of effect of isoproterenol (0.1 μg)
# Description: (§2) Dogs of either sex were anesthetized with sodium pentobarbital (30 mg/kg i.v.). Heparin (500 U/kg i.v.) was administered before making preparation. Under artificial respiration (18 strokes/min, 20 ml/kg tidal volume), left ventricular dp/dt max, and left coronary blood flow were measured (1). Test compounds were injected into the left coronary artery in a volume of 10 or 30 μl. The effects of compounds on coronary blood flow were observed and presented generally as ED50, a dose required to increase coronary blood flow by a half of the effects of nifedipine (3 μg). Similarly, the effects on dp/dt max were observed and shown as ED30, a dose required to increase dp/dt max by 30% of the efffects of isoproterenol (0.1 μg).
# [3] = system: left coronary blood flow; test: Coronary blood flow after injection into left coronary artery of anesthetized dogs; conditions: intracoronary injection, anesthetized dog; for Increase in CBF ED50: dose to increase CBF by half of the effect of nifedipine (3 μg); for Decrease in CBF ED-50: dose to decrease CBF by 50% from basal value
# Description: as §2
# [4] = system: coronary arterial blood flow; test: Coronary vasodilating effects in the anesthetized dog; conditions: Canis lupus familiaris, iv, read-out: Increase in coronary blood flow; for change in vivo at 0.3 mg/kg: 300 μg/kg; for change in vivo at 0.01 mg/kg: 10 μg/kg; for change in vivo at 0.03 mg/kg: 30 μg/kg
# Description: as §1
# [5] = system: left ventricular dp/dt max; test: Cardiotonic effects in the anesthetized dog; conditions: Canis lupus familiaris, iv, 300 μg/kg; read-out: Increase in dp/dt max
# Description: as §1
SMILES,Increase in dp/dt max ED30 [2] [µg],Increase in CBF ED50 [3] [µg],also measured
"CCOC(=O)C1=C(C)Nc2ccnn2C1c1ccccc1C(F)(F)F (single isomer, unassigned) [(20), 6-Ethoxycarbonyl-5-methyl-7-(2-trifluoromethylphenyl)-4,7-dihydropyrazolo[1,5-a]pyrimidine, optical isomer (-)]",–,–,inhibition in vivo at 0.01 mg/kg [1]: 22%
"CC1=C(C(=O)OC(CN2CCCCC2)c2ccccc2)C(c2cccc([N+](=O)[O-])c2)n2nccc2N1 (stereo not drawn) [(2), 1-Phenyl-2-piperidinoethyl 5-methyl-7-(3-nitrophenyl)-4,7-dihydropyrazolo[1,5-a]pyrimidine-6-carboxylate (β-form of diastereomer)]",> 10,1.5,inhibition in vivo at 0.03 mg/kg [1]: 37%
"CCOC(=O)C1=C(C)Nc2ccnn2C1c1ccccc1Cl (stereo not shown) [(4), 7-(2-Chlorophenyl)-6-ethoxycarbonyl-5-methyl-4,7-dihydropyrazolo[1,5-a]pyrimidine]",–,–,change in vivo at 0.3 mg/kg [4]: 33%
"CCOC(=O)C1=C(CO)Nc2ccnn2C1c1ccccc1C(F)(F)F (stereo not shown) [(5), 6-Ethoxycarbonyl-5-hydroxymethyl-7-(2-trifluoromethylphenyl)-4,7-dihydropyrazolo[1,5-a]pyrimidine]",–,–,change in vivo at 0.3 mg/kg [4]: 43%; change in vivo at 0.3 mg/kg [5]: 20%
"CC1=C(C(=O)OCC2CC2)C(c2ccccc2C(F)(F)F)n2nccc2N1 (stereo not shown) [(6), 6-Cyclopropylmethyloxycarbonyl-5-methyl-7-(2-trifluoromethylphenyl)-4,7-dihydropyrazolo[1,5-a]pyrimidine]",–,–,change in vivo at 0.01 mg/kg [4]: 45%
"CC1=C(C(=O)OCC2CC2)C(c2ccccc2C(F)(F)F)n2ncc(C#N)c2N1 (stereo not shown) [(7), 3-Cyano-6-cyclopropylmethyloxycarbonyl-5-methyl-7-(2-trifluoromethylphenyl)-4,7-dihydropyrazolo[1,5-a]pyrimidine]",> 30,2.0,inhibition in vivo at 0.01 mg/kg [1]: 20%; change in vivo at 0.01 mg/kg [4]: 52%
"COCC(OC(=O)C1=C(C)Nc2ccnn2C1c1ccccc1C(F)(F)F)c1ccccc1 (stereo not drawn) [(8), 1-Phenyl-2-methoxyethyl 5-methyl-7-(2-trifluoromethylphenyl)-4,7-dihydropyrazolo[1,5-a]pyrimidine-6-carboxylate (β-form of diastereomer)]",–,–,change in vivo at 0.01 mg/kg [4]: 33%
"CC1=C(C(=O)OCC(C)C)C(c2ccccc2C(F)(F)F)n2nccc2N1 (stereo not shown) [(12), 6-Isobutoxycarbonyl-5-methyl-7-(2-trifluoromethylphenyl)-4,7-dihydropyrazolo[1,5-a]pyrimidine]",> 300,1.8,–
"CCOC(=O)C1=C(C)Nc2c(C#N)cnn2C1c1ccccc1C(F)(F)F (stereo not shown) [(14), 3-Cyano-6-ethoxycarbonyl-5-methyl-7-(2-trifluoromethylphenyl)-4,7-dihydropyrazolo[1,5-a]pyrimidine]",> 100,1.6,inhibition in vivo at 0.01 mg/kg [1]: 20%; change in vivo at 0.01 mg/kg [4]: 54%
"CCOC(=O)C1=C(C)Nc2c(Cl)cnn2C1c1ccccc1C(F)(F)F (stereo not shown) [(16), 3-Chloro-6-ethoxycarbonyl-5-methyl-7-(2-trifluoromethylphenyl)-4,7-dihydropyrazolo[1,5-a]pyrimidine]",–,–,inhibition in vivo at 0.3 mg/kg ([1]; 300 μg/kg): 29%; change in vivo at 0.3 mg/kg [4]: 113%
"CCOC(=O)C1=C(C)Nc2ccnn2C1c1ccccc1SCc1ccccc1 (stereo not shown) [(17), 7-(2-Benzylthiophenyl)-6-ethoxycarbonyl-5-methyl-4,7-dihydropyrazolo[1,5-a]pyrimidine]",6.7,–,Decrease in CBF ED-50 [3]: 1.1 µg
"CCOC(=O)C1=C(C)Nc2ccnn2C1c1ccccc1OC(F)F (stereo not shown) [(18), 7-(2-Difluoromethoxyphenyl)-6-ethoxycarbonyl-5-methyl-4,7-dihydropyrazolo[1,5-a]pyrimidine]",–,–,change in vivo at 0.3 mg/kg [4]: 89%; change in vivo at 0.3 mg/kg [5]: 20%
"COc1ccc(CCOC(=O)C2=C(C)Nc3ccnn3C2c2ccccc2C(F)(F)F)cc1OC (stereo not shown) [(19), 6-[2-(3,4-Dimethoxyphenyl)ethyl]oxycarbonyl-5-methyl-7-(2-trifluoromethylphenyl)-4,7-dihydropyrazolo[1,5-a]pyrimidine]",14,–,Decrease in CBF ED-50 [3]: 1.2 µg
"CCOC(=O)C1=C(C)Nc2nnnn2C1c1ccccc1C(F)(F)F (stereo not shown) [(21), 6-Ethoxycarbonyl-5-methyl-7-(2-trifluoromethylphenyl)-4,7-dihydrotetrazolo[1,5-a]pyrimidine]",–,–,change in vivo at 0.3 mg/kg [4]: 63%
"CCC(CC)OC(=O)C1=C(C)Nc2ccnn2C1c1ccccc1C(F)(F)F (stereo not shown) [(22), 5-Methyl-6-(3-pentyloxycarbonyl)-7-(2-trifluoromethylphenyl)-4,7-dihydropyrazolo[1,5-a]pyrimidine]",–,–,change in vivo at 0.3 mg/kg [4]: 107%; change in vivo at 0.3 mg/kg [5]: 24%
"CCOC(=O)C1=C(CF)Nc2ccnn2C1c1ccccc1C(F)(F)F (stereo not shown) [(24), 6-Ethoxycarbonyl-5-fluoromethyl-7-(2-trifluoromethylphenyl)-4,7-dihydropyrazolo[1,5-a]pyrimidine]",86,–,Decrease in CBF ED-50 [3]: > 300 µg
"CC1=C(C(=O)OC(C)C)C(c2ccccc2Cl)n2nccc2N1 (stereo not shown) [(26), 7-(2-Chlorophenyl)-6-isopropoxycarbonyl-5-methyl-4,7-dihydropyrazolo[1,5-a]pyrimidine]",133,13,change in vivo at 0.03 mg/kg [4]: 33%
"CC1=C(C(=O)OC(C)C)C(c2cccc(Cl)c2Cl)n2nccc2N1 (stereo not shown) [(28), 7-(2,3-Dichlorophenyl)-6-isopropoxycarbonyl-5-methyl-4,7-dihydropyrazolo[1,5-a]pyrimidine]",–,–,inhibition in vivo at 0.03 mg/kg [1]: 29%; change in vivo at 0.03 mg/kg [4]: 53%
"CC1=C(C(=O)OC(C)C)C(c2ccccc2F)n2ncc(C#N)c2N1 (stereo not shown) [(29), 3-Cyano-7-(2-fluorophenyl)-6-isopropoxycarbonyl-5-methyl-4,7-dihydropyrazolo[1,5-a]pyrimidine]",> 30,1.0,–
"CC1=C(C(=O)OC(C)C)C(c2cccc(F)c2F)n2nccc2N1 (stereo not shown) [(31), 7-(2,3-Difluorophenyl)-6-isopropoxycarbonyl-5-methyl-4,7-dihydropyrazolo[1,5-a]pyrimidine]",> 30,1.4,–
"CC1=C(C(=O)OC(C)C)C(c2cc(F)ccc2F)n2nccc2N1 (stereo not shown) [(32), 7-(2,5-Difluorophenyl)-6-isopropoxycarbonyl-5-methyl-4,7-dihydropyrazolo[1,5-a]pyrimidine]",93,8,–
"CC1=C(C(=O)OC(C)C)C(c2cccc(F)c2Cl)n2nccc2N1 (stereo not shown) [(33), 7-(2-Chloro-3-fluorophenyl)-6-isopropoxycarbonyl-5-methyl-4,7-dihydropyrazolo[1,5-a]pyrimidine]",> 30,1.4,–
"CC1=C(C(=O)OC(CN2CCCCC2)c2ccccc2)C(c2cccc([N+](=O)[O-])c2)n2ccnc2N1 (stereo not drawn) [(34), 1-Phenyl-2-piperidinoethyl 7-methyl-5-(3-nitrophenyl)-5,8-dihydroimidazo[1,2-a]pyrimidine-6-carboxylate (β-form of diastereomer)]",> 30,10.0,–
"CC1=C(C(=O)OC(C)C)C(c2cccc(F)c2F)n2ncc(C#N)c2N1 (stereo not shown) [(35), 3-Cyano-7-(2,3-difluorophenyl)-6-isopropoxycarbonyl-5-methyl-4,7-dihydropyrazolo[1,5-a]pyrimidine]",> 30,0.28,–
